The record followed here is patent US11759496B2, “Compounds and pharmaceutical use thereof in the treatment of cancer” (priority 2016, dated 2023).

Non-standard residues stand in square brackets, D forms with d. Residues, ends and D or L forms follow the SMILES beside them. No end group written: not given here. NMeR = CN[C@@H](CCCNC(=N)N)C(=O)O; Nle = CCCC[C@H](N)C(=O)O

Experiment [1] relates to MEC-1 cells. The experiment is described as follows: MEC-1 cell death (PCD) after 2 h peptide treatment. The class given is cell-based. Conditions: for MEC-1 Cell Death (%) 2 h, [peptides] = 200 μM: Table 3, 200 μM peptide; for Cell Death (MEC-1, 2 h): Table 4. The protocol: Then the peptides structures were tested via NMR and X-ray. The peptides were also tested for their activity on MEC-1 and their KDs and Retention times on LCMS were determined.

In experiment [2] the target is T1, CD47 (membrane preparation from MEC-1 cells) (Homo sapiens, UniProt Q08722).
T1 construct: MEC-1 cell membrane preparation were biotinylated with the EZ-Link NHS-PEG4-Biotin kit; endogenous in cells; host or cells: MEC-1 cells (membrane preparation)
The experiment is described as follows: Binding affinity by biolayer interferometry (Octet RED96) on biotinylated MEC-1 cell membrane preparation. Particulars: NPD = Non Pertinent Data; for Kd(μM)PR: Table 4, N-methyl peptides; for Kd (μM): Table 3, average of two or more measurements. The protocol:
The binding affinities of peptides for a membrane preparation from MEC-1 cells were measured by biolayer interferometry on an Octet RED96 System (Pall FortéBio Corp., Menlo Park, Calif.).
The binding affinities of peptides for a membrane preparation from MEC-1 cells were measured by biolayer interferometry on an Octet RED96 System (Pall FortéBio Corp., Menlo Park, Calif.). This system monitors interference of light reflected from two sources (an internal reflection surface and the liquid/solid interface of a fiber optic sensor) to measure the rate of binding of molecules to the biosensor surface.
MEC-1 cell membrane preparation were biotinylated with the EZ-Link NHS-PEG4-Biotin kit from Thermo-Scientific. Biotinylated membranes were then loaded onto SuperStreptavidin (SSA) biosensors (Pall FortéBio Corp.) at empirically determined concentrations.
In order to highlight the pharmacological properties of these peptides, a systematic SAR study by the development of a binding assay allowing to the assessment of the affinity of the 4N1K analogues to CD47 was initiated. […] An Ala-scan to identify the pharmacophores of 4N1K was implemented.
The binding affinities of peptides for a MEC-1 cells membrane preparation were measured by biolayer interferometry on an Octet RED96 System (Pall FortéBio Corp., Menlo Park, Calif.). This system monitors interference of light reflected from two sources (an internal reflection surface and the liquid/solid interface of a fiber optic sensor) to measure the rate of binding of molecules to the biosensor surface. MEC-1 cells membrane preparation is biotinylated with the EZ-Link NHS-PEG4-Biotin kit from Thermo-Scientific and excess biotin is removed using desalting column from Thermo-Scientific. Biotinylated membranes are then loaded onto SuperStreptavidin (SSA) biosensors (Pall FortéBio Corp.) at empirically determined concentrations. […] Typically, the biosensors were pre-equilibrated in PBS containing either biotinylated membranes or biocytine 100 μg/mL. Biosensors are then equilibrated in assay buffer for 10 min, brought to baseline in assay buffer for 60 sec. and transferred to wells containing peptide in dose-response (association for 120 sec. and dissociation for 300 sec.). The double reference with either membrane-loaded biosensors without any peptide dose-response or biocytine-loaded biosensors with each peptide dose-response were run in parallel for background signal double subtractions. Binding kinetics were calculated using the FortéBio Data Analysis v8.2 software.
(Biolayer interferometry detects binding as a change in optical thickness at a sensor tip.)

T1 sequence (Q08722 19-323): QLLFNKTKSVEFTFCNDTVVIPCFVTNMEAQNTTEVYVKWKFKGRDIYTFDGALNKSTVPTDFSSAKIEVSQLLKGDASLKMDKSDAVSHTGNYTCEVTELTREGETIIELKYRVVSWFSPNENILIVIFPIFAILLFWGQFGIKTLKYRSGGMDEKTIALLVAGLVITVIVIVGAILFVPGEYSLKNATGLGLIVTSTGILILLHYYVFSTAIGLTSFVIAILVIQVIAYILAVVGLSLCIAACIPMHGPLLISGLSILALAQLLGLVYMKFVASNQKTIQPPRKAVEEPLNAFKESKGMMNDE

`CC(C)[C@H](NC(=O)[C@H](Cc1ccc(O)cc1)NC(=O)[C@H](Cc1ccccc1)NC(=O)[C@H](CCCNC(=N)N)NC(=O)[C@H](N)CCCCN)C(=O)N[C@H](C(=O)N[C@@H](C)C(=O)N[C@@H](Cc1c[nH]c2ccccc12)C(=O)N[C@@H](CCCCN)C(=O)N[C@H](CCCCN)C(=O)O)C(C)C` [M7/A, kRFYVV(A)WKk] (H-[dK]RFYVVAWK[dK]-OH; N-terminus and C-terminus assumed): the “MEC-1 Cell Death (%) 2 h, [peptides] = 200 μM” value in experiment [1] was found to be 6%.
With `CSCC[C@H](NC(=O)[C@@H](NC(=O)[C@@H](NC(=O)[C@H](Cc1ccc(O)cc1)NC(=O)[C@H](Cc1ccccc1)NC(=O)[C@H](CCCNC(=N)N)NC(=O)[C@H](N)CCCCN)C(C)C)C(C)C)C(=O)N(C)[C@@H](Cc1c[nH]c2ccccc12)C(=O)N[C@@H](CCCCN)C(=O)N[C@H](CCCCN)C(=O)O` [PKT12, H-(D)K R F Y V V M ψ(CONMe)W K (D)K-OH], the “Cell Death (MEC-1, 2 h)” value in experiment [1] is 0%. The “Kd(μM)PR” value in experiment [2] is listed as “NPD”.
As for `CSCC[C@H](NC(=O)[C@@H](NC(=O)[C@@H](NC(=O)[C@H](Cc1ccc(O)cc1)NC(=O)[C@H](Cc1ccccc1)NC(=O)[C@H](CCCNC(=N)N)NC(=O)[C@H](N)CCCCN)C(C)C)C(C)C)C(=O)N[C@@H](Cc1c[nH]c2ccccc12)C(=O)N[C@@H](C)C(=O)N[C@H](CCCCN)C(=O)O` [K9/A, kRFYVVMW(A)k] (H-[dK]RFYVVMWA[dK]-OH), the “MEC-1 Cell Death (%) 2 h, [peptides] = 200 μM” value in experiment [1] came out at 46%.
Turning to kRF(A)VVMWKk ([dK]RFAVVMWK[dK]) [Y4/A], the “MEC-1 Cell Death (%) 2 h, [peptides] = 200 μM” value in experiment [1] stood at 0%. Besides, the “Kd (μM)” value in experiment [2] is recorded as “NPD”.
Consider `CC(C)C[C@H](NC(=O)[C@@H](NC(=O)[C@@H](NC(=O)[C@H](Cc1ccc(O)cc1)NC(=O)[C@H](Cc1ccccc1)NC(=O)[C@H](CCCNC(=N)N)N(C)C(=O)[C@H](N)CCCCN)C(C)C)C(C)C)C(=O)N[C@@H](Cc1c[nH]c2ccccc12)C(=O)N[C@@H](CCCCN)C(=O)N[C@H](CCCCN)C(=O)O` [PKT17, H-(D)K ψ(CONMe)R F Y V V L W K (D)K-OH] (H-[dK][NMeR]FYVVLWK[dK]-OH), for which, in experiment [1], the “Cell Death (MEC-1, 2 h)” value is reported as 30%.
Take `CSCC[C@H](NC(=O)[C@@H](NC(=O)[C@@H](NC(=O)[C@H](Cc1ccc(O)cc1)NC(=O)[C@H](C)NC(=O)[C@H](CCCNC(=N)N)NC(=O)[C@H](N)CCCCN)C(C)C)C(C)C)C(=O)N[C@@H](Cc1c[nH]c2ccccc12)C(=O)N[C@@H](CCCCN)C(=O)N[C@H](CCCCN)C(=O)O` [F3/A, kR(A)YVVMWKk] (H-[dK]RAYVVMWK[dK]-OH; N-terminus and C-terminus assumed): in experiment [1], the “MEC-1 Cell Death (%) 2 h, [peptides] = 200 μM” value is reported as 6%. In addition, the “Kd (μM)” value in experiment [2] was “NPD”.
Consider `CCCC[C@H](NC(=O)[C@@H](NC(=O)[C@@H](NC(=O)[C@H](Cc1ccc(O)cc1)NC(=O)[C@H](Cc1ccccc1)NC(=O)[C@H](CCCNC(=N)N)NC(=O)[C@H](N)CCCCN)C(C)C)C(C)C)C(=O)N[C@@H](Cc1c[nH]c2ccccc12)C(=O)N[C@@H](CCCCN)C(=O)N[C@H](CCCCN)C(=O)O` [M/Nle, kRFYVV(Nle)WKk] (H-[dK]RFYVV[Nle]WK[dK]-OH), for which, in experiment [1], the “MEC-1 Cell Death (%) 2 h, [peptides] = 200 μM” value was found to be 47%.
As for `CSCC[C@H](NC(=O)[C@@H](NC(=O)[C@@H](NC(=O)[C@H](Cc1ccc(O)cc1)NC(=O)[C@H](Cc1ccccc1)NC(=O)[C@H](CCCNC(=N)N)NC(=O)[C@H](N)CCCCN)C(C)C)C(C)C)C(=O)N[C@@H](C)C(=O)N[C@@H](CCCCN)C(=O)N[C@H](CCCCN)C(=O)O` [W8/A, kRFYVVM(A)Kk] (H-[dK]RFYVVMAK[dK]-OH; N-terminus and C-terminus assumed), the “MEC-1 Cell Death (%) 2 h, [peptides] = 200 μM” value in experiment [1] was found to be 35%. In addition, the “Kd (μM)” value in experiment [2] was “NPD”.
As for `CSCC[C@H](NC(=O)[C@@H](NC(=O)[C@@H](NC(=O)[C@H](Cc1ccc(O)cc1)NC(=O)[C@H](Cc1ccccc1)NC(=O)[C@H](C)NC(=O)[C@H](N)CCCCN)C(C)C)C(C)C)C(=O)N[C@@H](Cc1c[nH]c2ccccc12)C(=O)N[C@@H](CCCCN)C(=O)N[C@H](CCCCN)C(=O)O` [R2/A, k(A)FYVVMWKk] (H-[dK]AFYVVMWK[dK]-OH), the “MEC-1 Cell Death (%) 2 h, [peptides] = 200 μM” value in experiment [1] is reported as 44%.
For the molecule `CSCC[C@H](NC(=O)[C@H](C)NC(=O)[C@@H](NC(=O)[C@H](Cc1ccc(O)cc1)NC(=O)[C@H](Cc1ccccc1)NC(=O)[C@H](CCCNC(=N)N)NC(=O)[C@H](N)CCCCN)C(C)C)C(=O)N[C@@H](Cc1c[nH]c2ccccc12)C(=O)N[C@@H](CCCCN)C(=O)N[C@H](CCCCN)C(=O)O` [V6/A, kRFYV(A)MWKk] (H-[dK]RFYVAMWK[dK]-OH; N-terminus and C-terminus assumed), the “MEC-1 Cell Death (%) 2 h, [peptides] = 200 μM” value in experiment [1] is listed as 30%. Besides, in experiment [2], the “Kd (μM)” value is given as “NPD”.
Regarding `CSCC[C@H](NC(=O)[C@@H](NC(=O)[C@@H](NC(=O)[C@H](Cc1ccc(O)cc1)NC(=O)[C@H](Cc1ccccc1)N(C)C(=O)[C@H](CCCNC(=N)N)NC(=O)[C@H](N)CCCCN)C(C)C)C(C)C)C(=O)N[C@@H](Cc1c[nH]c2ccccc12)C(=O)N[C@@H](CCCCN)C(=O)N[C@H](CCCCN)C(=O)O` [PKT10, H-(D)K R ψ(CONMe)F Y V V M W K (D)K-OH], the “Cell Death (MEC-1, 2 h)” value in experiment [1] is 0%. The “Kd(μM)PR” value in experiment [2] was “NPD”.
In the case of “H-(D)K R F Y V V M W ψ(CONMe)K (D)K-OH (KRFYVVMWKK; D-residues, N-methyl amide bond; (1)..(1) Amino acid at position 1 is in the D-configuration; (9)..(9) Amino acid at position 9 is backbone-N- …ON of the Lysine; (10)..(10) Amino acid at position 10 is in the D-configuration) [PKT14]”, the “Cell Death (MEC-1, 2 h)” value in experiment [1] amounted to 35%. In addition, in experiment [2], the “Kd(μM)PR” value is given as “NPD”.
Take `CSCC[C@H](NC(=O)[C@H](C(C)C)N(C)C(=O)[C@@H](NC(=O)[C@H](Cc1ccc(O)cc1)NC(=O)[C@H](Cc1ccccc1)NC(=O)[C@H](CCCNC(=N)N)NC(=O)[C@H](N)CCCCN)C(C)C)C(=O)N[C@@H](Cc1c[nH]c2ccccc12)C(=O)N[C@@H](CCCCN)C(=O)N[C@H](CCCCN)C(=O)O` [PKT7, H-(D)K R F Y V ψ(CONMe)V M W K (D)K-OH]: the “Cell Death (MEC-1, 2 h)” value in experiment [1] came out at 0%. Besides, in experiment [2], the “Kd(μM)PR” value is “NPD”.
Take “H-(D)K R F Y V V ψ(CONMe)M W K (D)K-OH (KRFYVVMWKK; D-residues, N-methyl amide bond; (1)..(1) Amino acid at position 1 is in the D-configuration; (7)..(7) Amino acid at position 7 is backbone-N- …ON of the Methionine; (10)..(10) Amino acid at position 10 is in the D-configuration) [PKT13]”: the “Cell Death (MEC-1, 2 h)” value in experiment [1] was found to be 0%. The “Kd(μM)PR” value in experiment [2] is “NPD”.
Regarding `CSCC[C@H](NC(=O)[C@@H](NC(=O)[C@@H](NC(=O)[C@H](Cc1ccc(O)cc1)NC(=O)[C@H](Cc1ccccc1)NC(=O)[C@H](CCCNC(=N)N)N(C)C(=O)[C@H](N)CCCCN)C(C)C)C(C)C)C(=O)N[C@@H](Cc1c[nH]c2ccccc12)C(=O)N[C@@H](CCCCN)C(=O)N[C@H](CCCCN)C(=O)O` [PKT11, H-(D)K ψ(CONMe)R F Y V V M W K (D)K-OH], the “Cell Death (MEC-1, 2 h)” value in experiment [1] is listed as 60%.
Consider “H-(D)K ψ(CONMe)R F Y VV I W K (D)K-OH [PKT18]”, for which the “Cell Death (MEC-1, 2 h)” value in experiment [1] was found to be 45%.
With `CSCC[C@H](NC(=O)[C@@H](NC(=O)[C@@H](NC(=O)[C@H](Cc1ccc(O)cc1)NC(=O)[C@H](Cc1ccccc1)NC(=O)[C@H](CCCNC(=N)N)NC(=O)[C@H](CCCCN)NC(C)=O)C(C)C)C(C)C)C(=O)N[C@@H](Cc1c[nH]c2ccccc12)C(=O)N[C@@H](CCCCN)C(=O)N[C@@H](CCCCN)C(N)=O` [compound 2] (Ac-KRFYVVMWKK-NH2), in experiment [1] (Table 2, NPD = Non Pertinent Data), the “MEC-1 Cell Death (%) 2 h” value stood at 30%.
Take `CSCC[C@H](NC(=O)[C@@H](NC(=O)[C@@H](NC(=O)[C@H](Cc1ccc(O)cc1)NC(=O)[C@H](Cc1ccccc1)NC(=O)[C@H](CCCNC(=N)N)N(C)C(=O)[C@H](N)CCCCN)C(C)C)C(C)C)C(=O)N[C@@H](Cc1c[nH]c2ccccc12)C(=O)N(C)[C@@H](CCCCN)C(=O)N[C@H](CCCCN)C(=O)O` [PKT15, H-(D)K ψ(CONMe)R F Y V V M W ψ(CONMe)K (D)K-OH]: the “Cell Death (MEC-1, 2 h)” value in experiment [1] was determined as 10%.
